Source: the supplement of paper PMC4862054

Key:
BT-549 [1] = assay: normalised response (% of control), CellTiter-Glo; higher = more viable cells (100 = DMSO, 0 = benzethonium chloride kill control); conditions: incubation time: 72 h
In short: (§1)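 Compound was dispensed into 384-well plates at 5 concentrations in 10-fold steps spanning a 10,000-fold range specific to that compound. Breast cancer cell lines were added as 20 µl suspension and left for 72 h before CellTox Green fluorescence (485/520 nm) and then CellTiter-Glo luminescence, read after 10 min at room temperature. Each reported value is the normalised signal at one concentration, with 0.1 % DMSO set at 100 and a positive kill control at 0 on each plate.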

CAL-120 [2] = assay: as above; conditions: incubation time: 72 h
In short: as §1

CAL-148 = assay: as above; conditions: incubation time: 72 h
In short: as §1

CAL-51 [3] = assay: as above; conditions: incubation time: 72 h
In short: as §1

HCC1143 = assay: as above; conditions: incubation time: 72 h
In short: as §1

HCC1599 = assay: as above; conditions: incubation time: 72 h
In short: as §1

HCC1937 [4] = assay: as above; conditions: incubation time: 72 h
In short: as §1

MCF-10A [5] = assay: as above; conditions: incubation time: 72 h
In short: as §1

MDA-MB-468 [6] = assay: as above; conditions: incubation time: 72 h
In short: as §1

MFM-223 = assay: as above; conditions: incubation time: 72 h
In short: as §1

SK-BR-3 [7] = assay: as above; conditions: incubation time: 72 h
In short: as §1

BT-549 [8] = conditions: 72 h
In short: (§2)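 Two sequential readouts followed a 72 h incubation of breast cancer cell lines with compound at 5 concentrations in 10-fold steps over a compound-specific 10,000-fold range: CellTox Green fluorescence (485/520 nm) for cell death, then CellTiter-Glo luminescence, after 10 min at room temperature, for viability. Each plate was normalised to 0.1 % DMSO and a positive kill control. Dose-response curves were fitted for EC50, censored at the top concentration.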

CAL-51 [9] = conditions: 72 h
In short: as §2

CAL-85-1 [10] = conditions: 72 h
In short: as §2

MDA-MB-468 [11] = conditions: 72 h
In short: as §2

BT-474 [12] = conditions: 72 h
In short: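 Breast cancer cell lines in 20 µl suspension were seeded onto 384-well plates pre-loaded with compound dissolved in 5 µl medium, then incubated 72 h. For viability, 2.5 µl CellTiter-Blue was added for 2 h at 37 °C and fluorescence read at 560/590 nm. Each plate was normalised to vehicle and a positive kill control and checked by Z'-factor. EC50 comes from the fitted percent-inhibition dose-response curve, censored at the highest concentration; rows with zero drug sensitivity score were dropped.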

CAL-85-1 [13] = conditions: 72 h; remark: listed apart in the source
Procedure: (§3)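 Drug sensitivity and resistance testing (DSRT) of breast cancer cell lines in 384-well plates, 5 concentrations in 10-fold dilutions over a compound-specific 10,000-fold range. After 72 h, cytotoxicity was read by CellTox Green fluorescence and viability by CellTiter-Glo luminescence (multiplexed), normalised to DMSO and benzethonium chloride controls. EC50 is the inflection point of the fitted dose-response curve (bottom asymptote free, so it can be relative for partial curves) and is censored at the highest tested concentration. Rows with DSS 0 (no meaningful response) were excluded.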

CAL-120 [14] = conditions: 72 h
In short: as §2

MCF-10A [15] = conditions: 72 h
In short: as §2

MCF-10A [16] = conditions: 72 h; remark: listed apart in the source
Procedure: as §3

BT-474 [17] = conditions: 72 h; remark: listed apart in the source
In short: as §2

HCC1937 [18] = conditions: 72 h
In short: as §2

MDA-MB-231 = conditions: 72 h
In short: as §2

MDA-MB-453 = conditions: 72 h
In short: as §2

SK-BR-3 [19] = conditions: 72 h
In short: as §2

SMILES | normalised response (BT-549 [1]) [%] | normalised response (CAL-120 [2]) [%] | normalised response (CAL-148) [%] | normalised response (CAL-51 [3]) [%] | normalised response (HCC1143) [%] | normalised response (HCC1599) [%] | normalised response (HCC1937 [4]) [%] | normalised response (MCF-10A [5]) [%] | normalised response (MDA-MB-468 [6]) [%] | normalised response (MFM-223) [%] | normalised response (SK-BR-3 [7]) [%] | further results
COc1ncc(-c2ccc3nccc(-c4ccnnc4)c3c2)cc1NS(=O)(=O)c1ccc(F)cc1F (1000 nM) | 13.9 | 29.9 | 6.28 | 6.49 | 23.6 | 56.4 | 24 | 18.8 | 12.7 | 33.4 | 19.1 | 
CC(C)(C)c1cc(NC(=O)Nc2ccc(-c3cn4c(n3)sc3cc(OCCN5CCOCC5)ccc34)cc2)no1 [Quizartinib] (1000 nM) | 91.7 | 112 | 108 | 125 | 108 | 88.6 | 104 | 109 | 114 | 105 | 103 | 
CCS(=O)(=O)c1cccc(-c2cc(C(=O)NC3CCN(C)CC3)c(C)c3[nH]c4ncc(C)cc4c23)c1 [TAK-901] (1000 nM) | 28.7 | 52.8 | 92.8 | 49.8 | 44.4 | 82.3 | 64.5 | 25.4 | 36.4 | 45.9 | 80.4 | 
Cn1cnc2c(F)c(Nc3ccc(Br)cc3F)c(C(=O)NOCCO)cc21 [MEK-162] (1000 nM) | 92.7 | 86.6 | 95.9 | 76.4 | 86.5 | 100 | 86 | 38.9 | 88.3 | 96.2 | 94.5 | 
C[C@@H]1C=C2C(=O)O[C@@H]3CC[C@H](C1)[C@]23O [Galiellalactone] |  |  |  |  |  |  |  |  |  |  |  | EC50, CellTiter-Glo (BT-549 [8]): 17.7 µM; EC50, CellTiter-Glo (CAL-51 [9]): 2.32 µM; EC50, CellTiter-Glo (CAL-85-1 [10]): 10.5 µM; EC50, CellTiter-Glo (MDA-MB-468 [11]): 7.12 µM; EC50, CellTiter-Blue viability (BT-474 [12]): 28.9 µM; EC50, CellTox Green (CAL-85-1 [13]): 47.4 µM
CCCC(CCC)C(=O)O [Valproic acid] |  |  |  |  |  |  |  |  |  |  |  | EC50, CellTiter-Glo (CAL-51 [9]): 441 µM
CN1CCN(c2ccc3nc(-c4c(N)c5c(F)cccc5[nH]c4=O)[nH]c3c2)CC1 [Dovitinib] |  |  |  |  |  |  |  |  |  |  |  | EC50, CellTiter-Glo (CAL-120 [14]): > 10 µM
CCOc1cc2ncc(C#N)c(Nc3ccc(OCc4ccccn4)c(Cl)c3)c2cc1NC(=O)/C=C/CN(C)C [Neratinib] (1000 nM) | 56.1 | 68.4 | 68.8 | 45 | 72.7 | 95.5 | 66.1 | 25.4 | 36.4 | 62.8 | 16.2 | 
Nc1nccc(-c2c(-c3ccc(F)cc3)ncn2C2CCCCC2)n1 |  |  |  |  |  |  |  |  |  |  |  | EC50, CellTiter-Glo (CAL-51 [9]): > 10 µM; EC50, CellTiter-Glo (CAL-85-1 [10]): 9.49 µM; EC50, CellTiter-Glo (MCF-10A [15]): 9.77 µM; EC50, CellTiter-Glo (MDA-MB-468 [11]): 0.213 µM; EC50, CellTox Green (MCF-10A [16]): 4.81 µM
COC1=CC(c2cc3ccccc3[nH]2)=N/C1=C\c1[nH]c(C)cc1C [Obatoclax] |  |  |  |  |  |  |  |  |  |  |  | EC50, CellTiter-Glo (BT-474 [17]): 0.128 µM; EC50, CellTiter-Glo (BT-549 [8]): 3.6 µM; EC50, CellTiter-Glo (CAL-51 [9]): 3.92 µM; EC50, CellTiter-Glo (CAL-85-1 [10]): 0.126 µM; EC50, CellTiter-Glo (HCC1937 [18]): 0.153 µM; EC50, CellTiter-Glo (MDA-MB-231): 0.131 µM; EC50, CellTiter-Glo (MDA-MB-453): 2.62 µM; EC50, CellTiter-Glo (MDA-MB-468 [11]): 0.664 µM; EC50, CellTiter-Glo (SK-BR-3 [19]): > 10 µM; EC50, CellTiter-Blue viability (BT-474 [12]): 0.124 µM
CS(=O)(=O)OCCCCOS(C)(=O)=O [Busulfan] |  |  |  |  |  |  |  |  |  |  |  | EC50, CellTiter-Glo (BT-474 [17]): > 100 µM
O=c1[nH]cc(F)c(=O)[nH]1 [Fluorouracil] (10000 nM) | 91.7 | 95.5 | 88.6 | 85.3 | 76 | 93.8 | 72.8 | 88.4 | 77.4 | 105 | 74.8 | 
C[C@@H]1C=C2C(=O)O[C@@H]3CC[C@H](C1)[C@]23O [Galiellalactone] (50000 nM) | 44.3 | 105 | 124 | 71.1 | 100 | 90.3 | 107 | 106 | 39.1 | 105 | 107 | 
COC1=C2C[C@@H](C)C[C@H](OC)[C@H](O)[C@@H](C)/C=C(\C)[C@H](OC(N)=O)[C@@H](OC)/C=C\C=C(/C)C(=O)NC(=CC1=O)C2=O [Geldanamycin] (10000 nM) | 19.2 | 26.7 | 33.4 | 6.33 | 24.1 | 45 | 24.2 | 10.7 | 7.56 | 20.3 | 30.7 | 
O=C(c1ccc(OCCN2CCCCC2)cc1)c1c(-c2ccc(O)cc2)sc2cc(O)ccc12 [Raloxifene] (10000 nM) | 70.7 | 82.2 | 99.4 | 104 | 101 | 49.1 | 79.1 | 107 | 46.1 | 62.5 | 82.7 | 
CN1CCN(c2ccc3nc(-c4c(N)c5c(F)cccc5[nH]c4=O)[nH]c3c2)CC1 [Dovitinib] (10000 nM) | 95.6 | 89.4 | 88.1 | 127 | 90.1 | 102 | 88 | 100 | 78.1 | 77.6 | 91.5 | 
